The results in this text go back to PMC6155812, “Synthesis, Anti-Breast Cancer Activity, and Molecular Docking Study of a New Group of Acetylenic Quinolinesulfonamide Derivatives” (Molecules : A Journal of Synthetic Chemistry and Natural …, 2017).

For series [1], the system named is HFF-1 normal fibroblasts. Nature of the series: WST-1 cytotoxicity assay, normal fibroblasts HFF-1. The format is cell-based, human. The settings on record: Homo sapiens, HFF-1, WST-1 assay, 3–4 days, 0.5–250 µM, neg = negative in concentration used, read-out: IC50 ± SD, HFF-1. The source says:
(§1) Encouraged by promising results in the field of antiproliferative derivatives of acetylenic sulfanylquinoline derivatives, in this study the decision was made to combine the biological potentials of sulfamoylquinoline and alkynyl moieties, with the intention of obtaining compounds with better activity against breast cancer cell lines. The SAR analyses of the acetylenic sufamoylquinoline were based on the cell growth inhibition potencies on the MCF-7 (human adenocarcinoma), MDA-MB-231 and T-47D (human ductal carcinoma) cells using the WST-1 assay. The results from the in vitro cytotoxicity assay are expressed as the concentration of compound (µM) that inhibited the proliferation of 50% of the tumor cells, compared to the control untreated cells (IC50). Cisplatin was used as a positive control to induce cell death.
(§2) The cell lines (MCF-7, MDA-MB-231, and nontumor HFF-1) were cultured and kept in Dubecco’s modified Eagle medium (DMEM) supplemented with 10% fetal bovine serum (FBS) 1.000 IU·mL^−1 penicillin and 10 mg·m^−1·mL^−1 streptomycin in atmosphere with 5% CO2 at 37 °C. The cells were seeded using a series of standard 96-well plates (Corning). Test compounds were prepared at a concentration of 5.0 mM dimethyl sulfoxide (DMSO). Freshly prepared dilutions of the test compounds in a culture medium at a concentration of 0.5–250 µM were added to the microtiter plates and the cells were grown for 3–4 days. Solvent control (DMSO) was included to check its potential inhibitory activity at the concentration used. After incubation, the cell growth rate was evaluated by performing a WST-1 assay. The amount of formazan produced was measured at 450 nm. Expermentally determined absorbance values were transformed into the cell percentage of growth as described previously. Each test point was performed in triplicate for each tested compound cocentration. The results were statistically analyzed using PraphPad Prism 6 software (Graphpad Software, Inc., La Jolla, CA, USA).
(Tetrazolium assays rely on reduction of a dye to a coloured formazan, in cell work by metabolically active cells.)

Series [2] deals with MCF-7 (human adenocarcinoma) cells. Put plainly: WST-1 antiproliferative assay, MCF-7. Format: cell-based. The settings on record: Homo sapiens, MCF7, WST-1 assay, 3–4 days, 0.5–250 µM; neg = negative in concentration used; read-out: IC50 ± SD, MCF-7.
Source text: as §1, §2

Series [3] relates to MDA-MB-231 cells. Put plainly: WST-1 antiproliferative assay, MDA-MB-231. Format: cell-based, human. As to conditions: Homo sapiens, MDA-MB-231, WST-1 assay, 3–4 days, 0.5–250 µM; neg = negative in concentration used; read-out: IC50 ± SD, MDA-MB-231.
Source text: as §1, §2

The test system of series [4] is T47D (human ductal carcinoma) cells. Put plainly: WST-1 antiproliferative assay, T47D. As to conditions: Homo sapiens, T47D, WST-1 assay, 3–4 days, 0.5–250 µM; neg = negative in concentration used; read-out: IC50 ± SD, T47D. Format: cell-based.
Source text: as §1, §2

The IC50 is the concentration needed to halve the response being measured. A word on the melting point: it is the temperature, or range, at which the solid turns liquid. Consider `C#CCSc1ccnc2c(S(=O)(=O)N(C)CC#C)cccc12` [5f, 4-(3-Propynylthio)-8-[N-methyl-N-(3-propynyl)sulfamoyl]quinoline], for which the melting point lay within 119 to 120 °C. In series [1], the IC50 came out at 366.1 ± 1.46 µM. The IC50 in series [2] was determined as 13.09 ± 0.11 µM. Also, the IC50 in series [3] was found to be 21.2 ± 0.96 µM. The half-maximal inhibitory concentration (IC50) in series [4] stood at 0.27 ± 0.03 µM.
